From ChEMBL document CHEMBL1201862, “PubChem BioAssay data set” (2004)
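Values below derive from 48-hour exposures of cells grown in 96-well plates, with endpoints linearly interpolated between the two concentrations bracketing the appropriate inhibition level. Abbreviation: GI50, concentration required for 50% inhibition of growth.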 Activity calls are given as the source filed them. No stated cut-off is given here; in the data, active = GI50 up to about 1.1 µM and inactive = higher.

Key:
Assay in all cases: NCI anticancer screen, dose series, 48 h
DU-145 = test system: DU-145
SNB-19 = test system: SNB-19
COLO 205 = test system: COLO 205
PC-3 = test system: PC-3
OVCAR-5 = test system: OVCAR-5
HOP-62 = test system: HOP-62
T47D = test system: T47D
SN12C = test system: SN12C
NCI-H460 = test system: NCI-H460
OVCAR-4 = test system: OVCAR-4
UO-31 = test system: UO-31
Hs-578T = test system: Hs-578T
RXF 393 = test system: RXF 393
HL-60 = test system: HL-60
NCI/ADR-RES = test system: NCI/ADR-RES
CCRF-CEM = test system: CCRF-CEM
ACHN = test system: ACHN
SK-MEL-5 = test system: SK-MEL-5
UACC-257 = test system: UACC-257
SNB-75 = test system: SNB-75

Measured: GI50

O=C(O)CCCc1ccc2ccccc2c1
inactive: DU-145 > 100 µM | SNB-19 > 100 µM | COLO 205 > 100 µM | PC-3 > 100 µM | OVCAR-5 > 100 µM | HOP-62 > 100 µM | T47D > 100 µM | SN12C > 100 µM | NCI-H460 > 100 µM | OVCAR-4 > 100 µM | UO-31 > 100 µM | Hs-578T > 100 µM | RXF 393 > 100 µM | HL-60 > 100 µM | NCI/ADR-RES > 100 µM | CCRF-CEM > 100 µM | ACHN > 100 µM | SK-MEL-5 > 100 µM | UACC-257 > 100 µM

CCN(CC)CCCNC(=O)c1cc(-c2nccn2C)nc2ccccc12
inactive: DU-145 > 100 µM | SNB-19 > 100 µM | COLO 205 > 100 µM | PC-3 > 100 µM | SNB-75 57.7 µM | OVCAR-5 > 100 µM | HOP-62 > 100 µM | T47D > 100 µM | SN12C > 100 µM | NCI-H460 59.7 µM | OVCAR-4 61.2 µM | UO-31 50.2 µM | RXF 393 > 100 µM | HL-60 > 100 µM | NCI/ADR-RES > 100 µM | CCRF-CEM > 100 µM | ACHN > 100 µM | SK-MEL-5 > 100 µM | UACC-257 > 100 µM

Cc1sc(Nc2ccccc2[N+](=O)[O-])c(C#N)c1C
inactive: DU-145 65.2 µM | SNB-19 26.2 µM | COLO 205 > 100 µM | PC-3 94.8 µM | SNB-75 12.1 µM | OVCAR-5 23 µM | HOP-62 20.8 µM | T47D 28.4 µM | SN12C 40.3 µM | NCI-H460 > 100 µM | OVCAR-4 43.6 µM | UO-31 > 100 µM | RXF 393 5.12 µM | NCI/ADR-RES 16.8 µM | CCRF-CEM > 100 µM | ACHN 31 µM | UACC-257 > 100 µM

CCOC(=O)C1=C(C)N(C)C23OC4(C(=O)OC)CC2c2ccccc2C1N3C4=O (stereo unspecified)
inactive: DU-145 > 100 µM | SNB-19 > 100 µM | COLO 205 > 100 µM | PC-3 > 100 µM | SNB-75 > 100 µM | OVCAR-5 > 100 µM | HOP-62 > 100 µM | T47D > 100 µM | SN12C 79.3 µM | NCI-H460 20 µM | OVCAR-4 > 100 µM | UO-31 25.1 µM | HL-60 24.6 µM | NCI/ADR-RES 86.9 µM | CCRF-CEM 79.6 µM | ACHN > 100 µM | SK-MEL-5 32.5 µM | UACC-257 > 100 µM

BrCC(Br)(c1ccccc1)c1ccccc1-c1cc(-c2ccccc2)cc(-c2ccccc2)n1 (stereo unspecified)
active: HL-60 1.07 µM
inactive: DU-145 4.12 µM | SNB-19 4.86 µM | COLO 205 1.43 µM | PC-3 2.59 µM | SNB-75 1.27 µM | OVCAR-5 3.67 µM | HOP-62 3.55 µM | SN12C 12.3 µM | NCI-H460 3.38 µM | OVCAR-4 4.05 µM | UO-31 10.7 µM | Hs-578T 4.52 µM | RXF 393 2 µM | NCI/ADR-RES 33.9 µM | CCRF-CEM 3.66 µM | ACHN 7.01 µM | SK-MEL-5 1.55 µM | UACC-257 2.04 µM

CC(C(N)=O)N(C)C(=O)c1cc2ccccc2[n+](Cc2ccccc2)c1 (stereo unspecified)
inactive: DU-145 > 100 µM | SNB-19 > 100 µM | COLO 205 > 100 µM | PC-3 > 100 µM | SNB-75 > 100 µM | OVCAR-5 > 100 µM | T47D > 100 µM | SN12C > 100 µM | NCI-H460 > 100 µM | OVCAR-4 > 100 µM | UO-31 > 100 µM | RXF 393 > 100 µM | HL-60 > 100 µM | NCI/ADR-RES > 100 µM | CCRF-CEM > 100 µM | ACHN > 100 µM | SK-MEL-5 > 100 µM | UACC-257 > 100 µM

O=C(Nc1ccccc1)n1[nH]c(=O)n(-c2ccccc2)c1=O
inactive: DU-145 > 100 µM | SNB-19 > 100 µM | COLO 205 > 100 µM | PC-3 > 100 µM | SNB-75 > 100 µM | T47D > 100 µM | SN12C > 100 µM | NCI-H460 > 100 µM | OVCAR-4 > 100 µM | UO-31 > 100 µM | Hs-578T > 100 µM | HL-60 > 100 µM | NCI/ADR-RES > 100 µM | CCRF-CEM > 100 µM | ACHN > 100 µM | SK-MEL-5 > 100 µM | UACC-257 > 100 µM

N[C@@H](CCC(=O)NCP(=O)(O)O)C(=O)O
inactive: SNB-19 > 100 µM | COLO 205 > 100 µM | PC-3 > 100 µM | OVCAR-5 > 100 µM | HOP-62 > 100 µM | T47D > 100 µM | SN12C > 100 µM | NCI-H460 > 100 µM | UO-31 > 100 µM | Hs-578T > 100 µM | HL-60 > 100 µM | NCI/ADR-RES > 100 µM | ACHN > 100 µM | SK-MEL-5 > 100 µM | UACC-257 > 100 µM

Cc1nc2c(=O)n(C)c(=O)n(C)c2o1
inactive: SNB-19 > 100 µM | COLO 205 > 100 µM | PC-3 > 100 µM | SNB-75 > 100 µM | OVCAR-5 > 100 µM | HOP-62 > 100 µM | T47D > 100 µM | SN12C > 100 µM | NCI-H460 > 100 µM | OVCAR-4 > 100 µM | UO-31 > 100 µM | Hs-578T > 100 µM | RXF 393 > 100 µM | NCI/ADR-RES > 100 µM | CCRF-CEM > 100 µM | ACHN > 100 µM | SK-MEL-5 > 100 µM | UACC-257 > 100 µM

Cc1ccc2nc(CN3CCCC(O)C3)cc(=O)n2c1 (stereo unspecified)
inactive: DU-145 > 100 µM | SNB-19 > 100 µM | COLO 205 > 100 µM | PC-3 > 100 µM | SNB-75 > 100 µM | OVCAR-5 > 100 µM | HOP-62 > 100 µM | SN12C > 100 µM | NCI-H460 > 100 µM | OVCAR-4 > 100 µM | UO-31 > 100 µM | Hs-578T > 100 µM | HL-60 > 100 µM | NCI/ADR-RES > 100 µM | CCRF-CEM > 100 µM | ACHN > 100 µM | UACC-257 > 100 µM

COc1ccc2c(c1)-c1nc(=O)n(CCCN(C)C)c3ccc([N+](=O)[O-])c(c13)N2
inactive: SNB-19 2.5 µM | SNB-75 1.28 µM | OVCAR-5 1.15 µM | T47D 15.5 µM | OVCAR-4 1.77 µM | Hs-578T 1.56 µM | HL-60 1.86 µM | NCI/ADR-RES 1.88 µM
active: DU-145 0.776 µM | COLO 205 0.752 µM | PC-3 0.792 µM | HOP-62 0.675 µM | SN12C 0.752 µM | NCI-H460 0.435 µM | UO-31 0.682 µM | CCRF-CEM 0.117 µM | ACHN 0.485 µM | SK-MEL-5 0.875 µM | UACC-257 1.04 µM

OC[C@H]1O[C@@H]2O[C@@](COCc3ccccc3)([C@H](OCc3ccccc3)[C@H]2O)[C@@H]1OCc1ccccc1
inactive: DU-145 16.5 µM | SNB-19 17.6 µM | COLO 205 17.4 µM | PC-3 14.2 µM | SNB-75 16.2 µM | OVCAR-5 17.1 µM | HOP-62 18.1 µM | T47D 14.8 µM | SN12C 15.7 µM | NCI-H460 17 µM | OVCAR-4 2.99 µM | UO-31 15.6 µM | Hs-578T 7.4 µM | HL-60 18.2 µM | NCI/ADR-RES 17.2 µM | CCRF-CEM 13.4 µM | ACHN 17.3 µM | SK-MEL-5 15.3 µM | UACC-257 17.5 µM

N#C[BH2-][n+]1cn(C2CC(O)C(COP(=O)(O)OC3CC(n4cnc5c(N)ncnc54)OC3CO)O2)c2nc(N)[nH]c(=O)c21 (stereo unspecified)
inactive: DU-145 > 100 µM | SNB-19 > 100 µM | COLO 205 > 100 µM | PC-3 > 100 µM | SNB-75 > 100 µM | OVCAR-5 > 100 µM | HOP-62 > 100 µM | T47D > 100 µM | SN12C > 100 µM | NCI-H460 > 100 µM | OVCAR-4 > 100 µM | UO-31 > 100 µM | RXF 393 > 100 µM | HL-60 > 100 µM | NCI/ADR-RES > 100 µM | CCRF-CEM > 100 µM | ACHN > 100 µM | SK-MEL-5 > 100 µM | UACC-257 > 100 µM

O=C1Nc2c(Cl)cc(Cl)cc2C1=O
inactive: SNB-19 > 100 µM | COLO 205 23.5 µM | PC-3 24.3 µM | SNB-75 6.03 µM | OVCAR-5 20.7 µM | HOP-62 18.5 µM | SN12C 17.9 µM | NCI-H460 21 µM | OVCAR-4 17.8 µM | UO-31 19.3 µM | Hs-578T 16.4 µM | RXF 393 13.6 µM | HL-60 2.4 µM | NCI/ADR-RES 19.7 µM | CCRF-CEM 21.3 µM | ACHN 34.2 µM | SK-MEL-5 15.3 µM | UACC-257 18.6 µM

COc1cc(NS(C)(=O)=O)ccc1Nc1c2ccccc2nc2ccccc12 [AMSACRINE]
inactive: COLO 205 2.86 µM | OVCAR-5 1.58 µM | OVCAR-4 4.05 µM | Hs-578T 1.79 µM | RXF 393 1.55 µM | NCI/ADR-RES 3.42 µM | UACC-257 2.95 µM
active: SNB-19 0.296 µM | PC-3 0.415 µM | SNB-75 0.403 µM | HOP-62 0.084 µM | T47D 0.441 µM | SN12C 0.131 µM | NCI-H460 0.028 µM | UO-31 0.661 µM | HL-60 0.0519 µM | CCRF-CEM 0.0561 µM | ACHN 0.0525 µM | SK-MEL-5 0.319 µM
